Measurements published in patent publication US7196084B2, “Cdc25 phosphatase inhibitors” (Societe de Conseils de Recherches et d'Applications …, priority 2000, dated 2007).
Where a name gives a salt, the structure may show the parent alone.

How the values were obtained:
[1] = system: phosphorylation of cdc2 in the Mia PaCa-2 line (endogenous cdc25C phosphatase of human cells); assay: Measurement of the state of cdc2 phosphorylation (western blot); format: cell-based; settings: Mia-Paca2 cells treated with increasing concentrations, sampling 24 hours later, FIG. 1; menadione as reference inhibitor
Method: b) Measurement of the State of cdc2 Phosphorylation:
This relates to showing that the enzymatic activity of cdc25-C phosphatase is inhibited in vivo […] in the presence of selected inhibitors.
The cells of the Mia PaCa2 line are seeded at a rate of 450 000 cells in 10 cm Petri dishes in Dulbecco's modified Eagle medium completed with 10% foetal calf serum. 48 hours later, the cells are treated for 1 hour with the compound to be tested or menadione at 100 μM (reference inhibitor). The medium is renewed after washing with PBS. 24 hours after the cells are scraped and lysed in the lysis buffer (Hepes 50 mM pH 7.5; NaCl 10 mM; Triton X100 1%; glycerol 10%; MgCl2 5 mM; EDTA 1 mM; sodium orthovanadate 1 mM; protease inhibitor cocktail 1836170 Roche Diagnostics). After centrifugation at 13 000 rpm for 10 minutes at 4° C., the concentration of proteins is determined in the supernatant (Bio-Rad DC Protein assay kit) and adjusted to 10 μg. The load buffer concentrated 5 times (Tris HCl 125 mM pH 7.4; SDS 10%; glycerol 50%; bromophenol blue 0.025%; β-mercaptoethanol 7%) is added to the samples. The samples are heated for 10 minutes at 100° C. The samples are deposited in a volume of 40 μl on Tris/Glycine 12% gels (BioRad). Migration occurs over 1 hour at 180 V. The proteins are transferred onto a nitrocellulose membrane (Hybond C, Amersham) under semi-dry conditions. […]

[2] = system: Mia-PaCa2 (human pancreatic cancer cells); assay: Anti-proliferative activity, WST1 colorimetric test, Mia-PaCa2; format: cell-based; settings: MIA PaCa-2, treated for 96 hours, read-out: IC50 on the cell proliferation of Mia-Paca2 lines
Method: (§1) c) Characterization of the Anti-proliferative Activity:
(§2) By way of example, the effect of a treatment on two lines of human Mia-Paca2 and DU145 cells with compounds of Examples 1–5 described previously will be studied. The cell lines DU145 (human prostate cancer cells) and Mia-PaCa2 (human pancreatic cancer cells) were acquired from the American Tissue Culture Collection (Rockville, Md., USA). The cells placed in 80 μL of Dulbecco's modified Eagle medium (Gibco-Brl, Cergy-Pontoise, France) completed with 10% foetal calf serum inactivated by heating (Gibco-Brl, Cergy-Pontoise, France), 50000 units/l of penicillin and 50 mg/l streptomycin (Gibco-Brl, Cergy-Pontoise, France), and 2 mM of glutamine (Gibco-Brl, Cergy-Pontoise, France) were seeded on a 96-well plate on day 0. The cells were treated on day 1 for 96 hours with increasing concentrations of each of the compounds to be tested up to 50 μg/ml. At the end of this period, quantification of cell proliferation is evaluated by a colorimetric test based on the cleavage of the tetrazolium salt WST1 by mitochondrial dehydrogenases in viable cells leading to the formation of formazan (Boehringer Mannheim, Meylan, France). These tests are carried out in duplicate with 8 determinations per concentration tested. For each compound to be tested, the values included in the linear part of the sigmoid were retained for linear regression analysis and used to estimate the inhibitory concentration IC50. The products are solubilized in dimethylsulphoxide (DMSO) at 10^−2 M and finally used in culture with 0.5% DMSO.

[3] = system: DU145 (human prostate cancer cells); assay: Anti-proliferative activity, WST1 colorimetric test, DU145; format: cell-based; settings: DU-145, treated for 96 hours, read-out: IC50 on the cell proliferation of DU-145 lines
Method: as §1, §2

| Structure (SMILES) | IC50 [2] | melting point | IC50 [3] | increase of the phosphorylated form of cdc2 [1] |
| --- | --- | --- | --- | --- |
| CC1=CC(=O)c2ccccc2C1=O [menadione, reference compound] | – | – | – | increase |
| COc1cc(CN(C)CCc2ccc([N+](=O)[O-])cc2)cc(N(C)C)c1O [Example 8, 2-(dimethylamino)-6-methoxy-4-({methyl[2-(4-nitrophenyl)ethyl]amino}methyl)phenol] | ≤ 100 µM | – | – | – |
| CCOP(=O)(OCC)Oc1ccc(CCNC(=O)c2cc3cc(O)ccc3cc2O)cc1 [Example 13, diethyl 4-{2-[(3,7-dihydroxy-2-naphthoyl)amino]ethyl}phenylphosphate] | ≤ 100 µM | 192 to 194 °C | ≤ 100 µM | – |
| CN(C)c1ccc(O)c(CNCCc2ccc([N+](=O)[O-])cc2)c1 [Example 7, 4-(dimethylamino)-2-({[2-(4-nitrophenyl)ethyl]amino}methyl)phenol] | ≤ 100 µM | – | – | – |
| COc1cc(N(C)C)cc(CN(C)CCc2ccc([N+](=O)[O-])cc2)c1OC(C)=O [Example 10, 4-(dimethylamino)-2-methoxy-6-({methyl[2-(4-nitrophenyl)ethyl]amino}methyl)phenyl acetate] | ≤ 100 µM | – | – | – |
| CN(CCc1ccc([N+](=O)[O-])cc1)Cc1cc(N(C)C)ccc1O [Example 2, 4-(dimethylamino)-2-({methyl[2-(4-nitrophenyl)ethyl]amino}methyl)phenol] | ≤ 100 µM | – | – | – |
| CN(C)c1ccc(NC(=O)CCNCc2cccc(N=C(N)c3cccs3)c2)cc1 [Example 4, 3-[(3-{[amino(2-thienyl)methylidene]amino}-benzyl)amino]-N-[4-(dimethylamino)phenyl]propanamide hydrochloride] | ≤ 100 µM | – | – | – |
| CN1CCN(c2ccc(NC(=O)CCCc3ccc(N)cc3)cc2)CC1.Cl [Example 5, 4-(4-aminophenyl)-N-[4-(4-methyl-1-piperazinyl)phenyl]butanamide hydrochloride] | – | 156 to 158 °C | – | – |
| COc1cc(N(C)C)cc(CN(C)CCc2ccc([N+](=O)[O-])cc2)c1O [Example 1, 4-(dimethylamino)-2-methoxy-6-({methyl[2-(4-nitrophenyl)ethyl]-amino}methyl)phenol] | ≤ 100 µM | 91 to 93 °C | – | growing increase of the phosphorylated form of cdc2 |
| CN(CCc1ccc([N+](=O)[O-])cc1)Cc1cc(O)ccc1O [Example 9, 2-({methyl [2-(4-nitrophenyl)ethyl]amino}methyl)-1,4-benzenediol] | ≤ 100 µM | – | – | – |
| COc1cc(N(C)C)cc(CNCCc2ccc([N+](=O)[O-])cc2)c1O [Example 6, 4-(dimethylamino)-2-methoxy-6-({[2-(4-nitrophenyl)ethyl]amino}methyl)phenol] | ≤ 100 µM | – | – | – |

The next lines start with results.

| IC50 [2] | melting point | IC50 [3] | Structure (SMILES) | increase of the phosphorylated form of cdc2 [1] |
| --- | --- | --- | --- | --- |
| ≤ 100 µM | 145 to 148 °C | – | CN(C)c1ccccc1NC(=O)CCCCc1ccc(/N=C(/N)c2cccs2)cc1.Cl [Example 30, 5-(4-{[(1E)-amino(2-thienyl)methylidene]amino}phenyl)-N-[2-(dimethylamino)phenyl]pentanamide hydrochloride] | – |
| ≤ 100 µM | > 250 °C | – | O=C(NCCc1ccc([N+](=O)[O-])cc1)c1cc2cc(O)ccc2cc1O [Example 11, 3,7-dihydroxy-N-[2-(4-nitrophenyl)ethyl]-2-naphthamide] | – |
| ≤ 100 µM | 182 to 184 °C | – | Cc1ccc(S(=O)(=O)Nc2ccc(CCNC(=O)c3cc4cc(O)ccc4cc3O)cc2)cc1 [Example 18, 3,7-dihydroxy-N-[2-(4-{[(4-methylphenyl)sulphonyl]amino}phenyl)ethyl]-2-naphthamide] | – |
| – | 124 to 126 °C | – | CS(=O)(=O)N1CCN(C(=O)c2cc3cc(O)ccc3cc2O)CC1 [Example 32, 3-{[4-(methylsulphonyl)piperazin-1-yl]carbonyl}naphthalene-2,6-diol] | – |
| ≤ 100 µM | – | ≤ 100 µM | O=C(NCCc1ccc(NS(=O)(=O)c2cccc(C(F)(F)F)c2)cc1)c1cc2cc(O)ccc2cc1O [Example 22, 3,7-dihydroxy-N-{2-[4-({[3-(trifluoromethyl)phenyl]sulphonyl}amino)phenyl]ethyl}-2-naphthamide] | – |
| ≤ 100 µM | 176 to 178 °C | – | CS(=O)(=O)Nc1ccc(CCNC(=O)c2cc3cc(O)ccc3cc2O)cc1 [Example 16, 3,7-dihydroxy-N-(2-{4-[(methylsulphonyl)amino]phenyl}ethyl)-2-naphthamide] | – |
| – | 105 to 110 °C | – | CCCCS(=O)(=O)N1CCN(C(=O)c2cc3cc(O)ccc3cc2O)CC1 [Example 33, 3-{[4-(butylsulphonyl)piperazin-1-yl]carbonyl}naphthalene-2,6-diol] | – |
| ≤ 100 µM | – | – | O=C(NCCc1ccc(NS(=O)(=O)c2ccc(F)cc2)cc1)c1cc2cc(O)ccc2cc1O [Example 28, N-[2-(4-{[(4-fluorophenyl)sulphonyl]amino}phenyl)ethyl]-3,7-dihydroxy-2-naphthamide] | – |
| ≤ 100 µM | 135 to 137 °C | – | Cc1ccc(S(=O)(=O)N2CCN(C(=O)c3cc4cc(O)ccc4cc3O)CC2)cc1 [Example 31, 3-({4-[(4-methylphenyl)sulphonyl]piperazin-1-yl}carbonyl) naphthalene-2,6-diol] | – |
| ≤ 100 µM | 193 to 195 °C | – | CCCCS(=O)(=O)Nc1ccc(CCNC(=O)c2cc3cc(O)ccc3cc2O)cc1 [Example 17, N-(2-{4-[(butylsulphonyl)amino]phenyl}ethyl)-3,7-dihydroxy-2-naphthamide] | – |
| ≤ 100 µM | – | ≤ 100 µM | NS(=O)(=O)c1ccc(CCNC(=O)c2cc3cc(O)ccc3cc2O)cc1 [Example 14, N-{2-[4-(aminosulphonyl)phenyl]ethyl}-3,7-dihydroxy-2-naphthamide] | – |
| ≤ 100 µM | – | – | CC1CCN(S(=O)(=O)c2cccc(CNC(=O)c3cc4cc(O)ccc4cc3O)c2)CC1 [Example 29, 3,7-dihydroxy-N-{3-[(4-methyl-1-piperidinyl)sulphonyl]benzyl}-2-naphthamide] | – |
